# Measurements: patent US20150344466A1 (SUMITOMO CHEMICAL COMPANY, LIMITED, priority 2013, published 2015)
# Tested on: Culex pipiens pallens
# Assay: Knockdown spray test on adult Culex pipiens pallens (Test Example 4)
# Type: in vivo
# Settings: topical, 0.25 h, active ingredient 0.1% w/v, 0.5 ml sprayed, within 15 minutes, read-out: knockdown rate of the test insects within 15 minutes
# Procedure: Ten adult Culex pipiens pallens were released in a polyethylene cup (bottom diameter: 10.6 cm), and the cup was covered with a 16-mesh nylon gauze. The polyethylene cup was placed on the bottom of a test chamber (bottom: 46 cm×46 cm, height: 70 cm). From a height of 30 cm above the upper surface of the polyethylene cup, 0.5 ml of the test drug solution was sprayed using a spray gun (a spraying pressure of 0.4 kg/cm^2). Immediately after spraying, the cup was taken out from the test chamber, and after 2 minutes, 5 minutes and 15 minutes, the number of knocked-down insects was counted to obtain a knockdown rate. The knockdown rate was calculated by the following equation.
# Knockdown Rate (%)=(Number of Knocked-down Insects/Number of Tested Insects)×100
row,Structure (SMILES),pest or weed control at 0.1 % strength [%]
1,"O=C(NCC1CCOCC1)c1cc(COc2ccc(SC(F)(F)F)cc2)on1 [(193), N-(tetrahydropyran-4-ylmethyl)-5-(4-trifluoromethylthiophenoxymethyl)isoxazole-3-carboxamide]",≥ 80
2,"C#Cc1c(C(=O)NCC2CCOC2)noc1COCc1ccccc1F (stereo not shown) [(249), N-(tetrahydrofuran-3-ylmethyl)-5-(2-fluorobenzyloxymethyl)-4-ethynylisoxazole-3-carboxamide]",≥ 80
3,"O=C(NCC1CCOC1)c1cc(COCCCCc2ccccc2)on1 (stereo not shown) [(135), N-(tetrahydrofuran-3-ylmethyl)-5-(4-phenylbutoxymethyl)isoxazole-3-carboxylic acid-3-carboxamide]",≥ 80
4,"O=C(NCC1CCOC1)c1cc(CCCc2ccc3c(c2)OC(F)(F)O3)on1 (stereo not shown) [(231), N-(tetrahydrofuran-3-ylmethyl)-5-[5-(2,2-difluoro-1,3-benzodioxolanyl)propyl]isoxazole-3-carboxamide]",≥ 80
5,"O=C(NCC1CCOCC1)c1cc(COCc2ccc3c(c2)OC(F)(F)O3)on1 [(237), N-(tetrahydropyran-4-ylmethyl)-5-[5-(2,2-difluoro-1,3-benzodioxolanyl)methoxymethyl]isoxazole-3-carboxamide]",≥ 80
6,"O=C(NCC1CCOC1)c1ncc(COCc2ccccc2)s1 (stereo not shown) [(48), N-(tetrahydrofuran-3-ylmethyl)-5-benzyloxymethythiazole-2-carboxamide]",≥ 80
7,"O=C(NCC1CCOC1)c1cc(CCCCCCOc2ccccc2)on1 (stereo not shown) [(148), N-(tetrahydrofuran-3-ylmethyl)-5-(6-phenoxyhexyl)isoxazole-3-carboxamide]",≥ 80
8,"O=C(NCC1CCOC1)c1cc(COCc2cc(Br)cc(Br)c2)on1 (stereo not shown) [(262), N-(tetrahydrofuran-3-ylmethyl)-5-(3,5-dibromobenzyloxymethyl)isoxazole-3-carboxamide]",≥ 80
9,"O=C(NCC1CCOC1)c1cc(COCc2ccc(Oc3ccccc3)cc2)on1 (stereo not shown) [(117), N-(tetrahydrofuran-3-ylmethyl)-5-(4-phenoxybenzyloxymethyl) isoxazole-3-carboxamide]",≥ 80
10,"O=C(NCC1CCOCC1)c1cc(COc2cccc(Cl)c2)on1 [(179), N-(tetrahydropyran-4-ylmethyl)-5-(3-chlorophenoxymethyl)isoxazole-3-carboxamide]",≥ 80
11,"O=C(NCC1CCOC1)c1cc(Cc2cccc(Oc3ccccc3)c2)on1 (stereo not shown) [(163), N-(tetrahydrofuran-3-ylmethyl)-5-(3-phenoxybenzyl)isoxazole-3-carboxamide]",≥ 80
12,"O=C(NCC1CCOC1)c1cc(CCCBr)on1 (stereo not shown) [(248), N-(tetrahydrofuran-3-ylmethyl)-5-(3-bromopropyl)isoxazole-3-carboxamide]",≥ 80
13,"CC1(CNC(=O)c2cc(COCc3ccc4c(c3)OC(F)(F)O4)on2)COC1 [(238), N-(3-methyloxetan-3-ylmethyl)-5-[5-(2,2-difluoro-1,3-benzodioxolanyl)methoxymethyl]isoxazole-3-carboxamide]",≥ 80
14,"O=C(NCC1CCOCC1)c1cc(COCCCCc2ccccc2)on1 [(136), N-(tetrahydropyran-4-ylmethyl)-5-(4-phenylbutoxymethyl)isoxazole-3-carboxamide]",≥ 80
15,"O=C(NCC1COCCO1)c1cc(CCCc2ccc3c(c2)OC(F)(F)O3)on1 (stereo not shown) [(232), N-(1,4-dioxan-2-ylmethyl)-5-[3-(5-(2,2-difluoro-1,3-benzodioxolanyl))propyl]isoxazole-3-carboxamide]",≥ 80
16,"O=C(NCC1CCOC1)c1cc(COc2cccc(SC(F)(F)F)c2)on1 (stereo not shown) [(202), N-(tetrahydrofuran-3-ylmethyl)-5-(3-trifluoromethylthiophenoxymethyl)isoxazole-3-carboxamide]",≥ 80
17,"O=C(NC1CSC1)c1cc(COCc2ccccc2)on1 [(40), N-(thietan-3-yl)-5-benzyloxymethylisoxazole-3-carboxamide]",≥ 80
18,"O=C(NCC1CCOC1)c1cc(CSCc2ccccc2)on1 (stereo not shown) [(254), N-(tetrahydrofuran-3-ylmethyl)-5-benzylthiomethylisoxazole-3-carboxamide]",≥ 80
19,"O=C(NCC1CCOC1)c1cc(COCc2ccc3c(c2)OC(F)(F)O3)on1 (stereo not shown) [(236), N-(tetrahydrofuran-3-ylmethyl)-5-[5-(2,2-difluoro-1,3-benzodioxolanyl)methoxymethyl]isoxazole-3-carboxamide]",≥ 80
20,"O=C(NCC1COCCO1)c1cc(COCc2ccc3ccccc3c2)on1 (stereo not shown) [(233), N-(1,4-dioxan-2-ylmethyl)-5-(2-naphthylmethoxymethyl)isoxazole-3-carboxamide]",≥ 80

row,Structure (SMILES),pest or weed control at 0.1 % strength [%]
1,"O=C(NCC1CCOC1)c1ncc(COc2ccccc2)s1 (stereo not shown) [(47), N-(tetrahydrofuran-3-ylmethyl)-5-phenoxymethythiazole-2-carboxamide]",≥ 80
2,"O=C(NCC1CCOC1)c1noc(COCc2ccc3ccccc3c2)c1I (stereo not shown) [(295), N-(tetrahydrofuran-3-ylmethyl)-5-(2-naphthylmethoxymethyl)-4-iodoisoxazole-3-carboxamide]",≥ 80
3,"O=C(NCC1CCOC1)c1cc(Cc2ccccc2Cl)on1 (stereo not shown) [(323), N-(tetrahydrofuran-3-ylmethyl)-5-(2-chlorobenzyl)isoxazole-3-carboxamide]",≥ 80
4,"O=C(NCC1COCO1)c1cc(COCc2ccccc2)on1 (stereo not shown) [(35), N-[4-(1,3-dioxolyl)methyl]-5-benzyloxymethylisoxazole-3-carboxamide]",≥ 80
5,"O=C(NCC1CCOC1)c1cc(COCc2ccsc2)on1 (stereo not shown) [(107), N-(tetrahydrofuran-3-ylmethyl)-5-(thiophen-3-ylmethoxymethyl)isoxazole-3-carboxamide]",≥ 80
6,"O=C(NCC1CCOC1)c1cc(COCc2ccc(-c3ccccc3)s2)on1 (stereo not shown) [(241), N-(tetrahydrofuran-3-ylmethyl)-5-(5-phenyl-2-thienylmethoxymethyl)isoxazole-3-carboxamide]",≥ 80
7,"O=C(NCC1CCOC1)c1cc(CCCOc2ccccc2)on1 (stereo not shown) [(145), N-(tetrahydrofuran-3-ylmethyl)-5-(3-phenoxypropyl)isoxazole-3-carboxamide]",≥ 80
8,"O=C(NCC1CCOC1)c1cc(COCCCCCc2ccccc2)on1 (stereo not shown) [(137), N-(tetrahydrofuran-3-ylmethyl)-5-(5-phenylpentyloxymethyl)isoxazole-3-carboxylic acid-3-carboxamide]",≥ 80
9,"O=C(NCC1CCOCC1)c1cc(COCCCCCc2ccccc2)on1 [(138), N-(tetrahydropyran-4-ylmethyl)-5-(5-phenylpentyloymethyl)isoxazole-3-carboxamide]",≥ 80
10,"O=C(NCC1CCOC1)c1cc(CCCc2cccc(F)c2)on1 (stereo not shown) [(251), N-(tetrahydrofuran-3-ylmethyl)-5-[3-(3-fluorophenyl)propyl]isoxazole-3-carboxamide]",≥ 80
11,"O=C(NCC1CCOCC1)c1cc(COc2cccc(SC(F)(F)F)c2)on1 [(203), N-(tetrahydropyran-4-ylmethyl)-5-(3-trifluoromethylthiophenoxymethyl)isoxazole-3-carboxamide]",≥ 80
12,"O=C(NCC1CCOC1)c1cc(Cc2cc3ccccc3s2)on1 (stereo not shown) [(161), N-(tetrahydrofuran-3-ylmethyl)-5-(benzo[b]thiophen-2-ylmethy)isoxazole-3-carboxamide]",≥ 80
13,"O=C(NCC1CCOC1)c1cc(COCc2cc(F)ccc2F)on1 (stereo not shown) [(259), N-(tetrahydrofuran-3-ylmethyl)-5-(2,5-difluorobenzyloxymethyl)isoxazole-3-carboxamide]",≥ 80
14,"COc1ccc2cc(CCCc3cc(C(=O)NCC4CCOC4)no3)ccc2c1 (stereo not shown) [(247), N-(tetrahydrofuran-3-ylmethyl)-5-[3-(6-methoxy-2-naphthyl)propyl]isoxazole-3-carboxamide]",≥ 80
15,"C#Cc1c(C(=O)NCC2CCOC2)noc1COCc1ccc2ccccc2c1 (stereo not shown) [(250), N-(tetrahydrofuran-3-ylmethyl)-5-(2-naphthylmethoxymethyl)-4-ethynylisoxazole-3-carboxamide]",≥ 80
16,"COc1ccccc1COCc1cc(C(=O)NCC2CCOC2)no1 (stereo not shown) [(227), N-(tetrahydrofuran-3-ylmethyl)-5-(2-methoxybenzyloxymethyl) isoxazole-3-carboxamide]",≥ 80
17,"O=C(NCC1CCOC1)c1noc(COCc2ccc3ccccc3c2)c1CO (stereo not shown) [(209), N-(tetrahydrofuran-3-ylmethyl)-4-hydroxymethyl-5-(2-naphthylmethoxymethyl)isoxazole-3-carboxamide]",≥ 80
18,"O=C(NCC1CCOC1)c1cc(CCCCCOc2ccccc2)on1 (stereo not shown) [(147), N1-(tetrahydrofuran-3-ylmethyl)-5-(5-phenoxypentyl)isoxazole-3-carboxamide]",≥ 80
19,"O=C(NCC1CCOC1)c1noc(COCc2ccc3ccccc3c2)c1Br (stereo not shown) [(256), N-(tetrahydrofuran-3-ylmethyl)-5-(2-naphthylmethoxymethyl)-4-bromoisoxazole-3-carboxamide]",≥ 80
20,"O=C(NCC1COCO1)c1cc(CCCc2ccc3ccccc3c2)on1 (stereo not shown) [(229), N-(1,3-dioxolan-4-ylmethyl)-5-[3-(2-naphthyl)propyl]isoxazole-3-carboxamide]",≥ 80
